Where a name gives a salt, the structure may show the parent alone.
Key:
[1] = system: mice (anoxic induced amnesia); assay: Passive Avoidance Anoxic Induced Amnesia Test; type: in vivo, mouse (Swiss-Webster, middle-aged); conditions: intraperitoneal, vs saline control
Source text: A useful in vivo test associated with decreased neural function in mammals is the Passive Avoidance Anoxic Induced Amnesia Test. This test is used to determine the attenuation of anoxic induced amnesia in mice treated with drug, as compared to saline treated control animals with no drug. A shock-motivated, single trial, step-through passive avoidance procedure is used. Groups of 25 Swiss-Webster, middle-aged mice (9 months of age) are placed singly in the front chamber of a 2-chamber box and are allowed to voluntarily cross into the rear chamber. As soon as the mouse enters the rear chamber, a door automatically traps the animal and a mild electric shock (0.4 mA for 4 seconds) is delivered to its feet. Following the foot shock, the mice are initially placed in an anoxic environment (0% oxygen) for 12 seconds, which quickly induces unconsciousness. […] All testing is performed 24 hours later, and in all cases the mice appear fully recovered from the previous anoxic/hypoxic treatment. […] Control animals are injected intraperitoneally only with saline at 0.01 ml/g of body weight. The latent period prior to entering the rear chamber is recorded for both training and testing sessions. The greater the memory of being shocked, the greater the reluctance to enter into the rear chamber and the higher will be the latent period prior to re-entry. […]

[2] = system: mice (tetrabenazine-induced depression); assay: Tetrabenazine-induced depression (antidepressant); type: in vivo, mouse; parameters: key: Active: A compound is considered active if 3 or more of 10 mice are protected against the tetrabenazine-induced effects; conditions: 25 mg/kg, oral, 10 mice
Experimental: The compounds of the invention are useful as antidepressant agents in warm-blooded animals as verified in the following tests. First, the antidepressant properties of these compounds were tested by measuring their ability to counteract depression induced in animals by the administration of tetrabenazine methanesulfonate. Each test compound was administered orally to 10 mice at a dose of 25 mg/kg of body weight. Thirty minutes later, tetrabenazine methane sulfonate was administered intraperitoneally to each mouse at a dose of 39 mg/kg of body weight, which dose is known to depress markedly the exploratory behavior of normal mice. Thirty minutes later the mice were tested for their exploratory behavior as described by E. Greenblatt and A. C. Osterberg, Toxicology and Applied Pharmacology, 7. 566-578 (1965). A compound is considered active if 3 or more of 10 mice are protected against the tetrabenazine-induced effects.

[3] = system: Brain-Specific Receptors of Rats (3H-benzodiazepine binding); assay: Inhibition of the binding of 3H-benzodiazepine to brain-specific receptors of rats; parameters: species or system rat (Wistar strain, whole cortex); conditions: rat cortex P2 fraction, 3H-diazepam 1.5 nM or 3H-flunitrazepam 1.0 nM
Source text: Another test utilized for the determination of anxiolytic activity is the measurement of the ability of a test compound to inhibit the binding of tritiated benzodiazepines to brain-specific receptors of mammals. A modification of the method described by R. F. Squires, et al., Nature, 266 (21), 732 (Apr., 1977) and H. Mohler, et al., Science, 198, 849 (1977) was employed. […] The test compounds were solubilized in dimethylformamide, acetic acid, ethanol or hydrochloric acid. […] (1) resuspended in twice the original volume in hypotonic 50 mM Tris.HCl (pH 7.4), or (2) resuspended in one-half the original volume in hypotonic 10 mM Tris.HCl (pH 7.4) and frozen (-20° C.) until time. of use. Frozen P2 preparations were thawed and resuspended in four times the original homogenizing volume at time of assay. […] Incubation for 30 minutes proceeded in ice and was terminated by filtration, under vacuum, through glass fiber filters. The filters were washed twice with 5 ml of ice-cold 50 mM Tris.HCl (pH 7.4) and placed in scintillation vials. After drying at 50°-60° C. for 30 minutes, 10 ml of diluent was added and the radioactivity determined in a scintillation counter. Inhibition of binding was calculated by the difference between total binding and binding in the presence of test compound, divided by the total binding, X 100.

[4] = system: mice (hypoxic environment); assay: Hypoxic survival test; type: in vivo, mouse (Royal Hart); conditions: intraperitoneal, 10% oxygen, 5 minutes
Outline: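 Groups of 20 Royal Hart mice (6 weeks old) dosed i.p. with compound in saline at 1–200 mg/kg, 30 minutes before exposure to 10% oxygen/90% carbon dioxide; survival scored after 5 minutes. Saline and physostigmine (0.125 mg/kg i.p.) groups run in parallel.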

[5] = system: Spontaneously Hypertensive Rats; assay: Hypotensive activity: mean arterial blood pressure in spontaneously hypertensive rats; type: in vivo, rat (Okamoto strain, male); conditions: SHR, gavage, 100 mg/kg or less, two doses 24 h apart, measured at 28 hours; average MABP of rats used 160±1.5 mm; 100 mg/kg
Experimental: The novel compounds of the invention are active hypotensive agents at nontoxic doses when administered to mammals. These compounds were tested for hypotensive activity by the method of P. S. Chan and D. W. Poorvin, Clinical and Experimental Hypertension, (6), 817-830 (1979). Male, 16 week old, spontaneously hypertensive rats of the Okamoto strain (Taconic Farms, Germantown, N.Y.) having an average means arterial blood pressure of 160±1.5 mm of mercury are used in the test. A rat is dosed by gavage with a test compound, suspended in 2% pre-boiled starch at a concentration of 50 mg/ml, at a dose of 100 mg/kg of body weight or less, with 0.9% sodium chloride loading at a dose of 25 ml/kg of body weight. A second identical dose of the test compound, without sodium chloride loading is given 24 hours later. At 28 hours after the initial dose the mean arterial blood pressure is measured by the method of Chan and Poorvin vide supra.

rats = assay: Non-conditioned passive avoidance conflict procedure in rats (anxiolytic); type: in vivo, rat (Wistar strain, male); conditions: 25 mg/kg, oral, 60 minutes
Experimental: A test used to assess antianxiety effects is the non-conditioned passive avoidance procedure described by J. R. Vogel, B. Beer and D. E. Clody, "A Simple and Reliable Conflict Procedure for Testing Antianxiety Agents", Psychopharmacologia, 21, 1-7 (1971). A conflict situation is induced in rats by a modification of this method.
Groups of 8 naive, Wistar strain male rats (Royalhart Farms, New Hampton, N.J.), weighing 200-240 g each, were deprived of water for 48 hours. The test compounds were administered in single or graded, oral doses, suspended in 2% starch with 5% polyethylene glycol in distilled water and one drop of polysorbate 80. Control animals received the vehicle alone. At 60 minutes each rat was placed in an individual clear plastic chamber. Tap water was available ad libitum from a nipple located in a black box off the main chamber. A 0.7 milliampere AC shocking current was established between the stainless steel grid floor and the tap. After 20 licks of non-shocked drinking, a 2 second shocking current was administered to the rat. This ratio of 20 licks of non-shocked drinking followed by a 2 second shock was continued for a total of 3 minutes. The number of shocks taken by each rat during the 3 minute interval was recorded and compared to a control group. […]

| SMILES | % Improvement ([1]; 100 mg/kg) | % Improvement ([1]; 200 mg/kg) | Result (protection against tetrabenazine-induced depression) [2] | % Inhibition (3H-benzodiazepine binding) [3] | % Survivors ([4]; 100 mg/kg) | responders at 10 mg/kg ([4]; Mus musculus, ip, 5 min, 10 mg/kg, read-out: % Survivors) | MABP/mmHg (mean arterial blood pressure) [5] | Result (No. of shocks per 3 min.) (rats) |
| --- | --- | --- | --- | --- | --- | --- | --- | --- |
| N#Cc1cnn2c1N(C(=O)CN1CCN(Cc3ccccc3)CC1)CC=C2c1cccc(C(F)(F)F)c1 [Example 17, 4,5-Dihydro-4-[[4-(phenylmethyl)-1-piperazinyl]acetyl]-7-[3-(trifluoromethyl)phenyl]pyrazolo[1,5-a]pyrimidine-3-carbonitrile] | 65% | 93% | Active | 17% | 48% | 40% | 120 mmHg | – |
| N#Cc1cnn2c1N(C(=O)CN1CCN(CCC3CCCCC3)CC1)CC=C2c1cccc(C(F)(F)F)c1 [Example 41, 4-[[4-(2-Cyclohexylethyl)-1-piperazinyl]acetyl]-4,5-dihydro-7-[3-(trifluoromethyl)phenyl]pyrazolo[1,5-a]pyrimidine-3-carbonitrile] | – | – | – | – | – | – | – | 18.0 shocks per 3 min. |
| CN1CCN(CC(=O)N2CC=C(c3cccc(C(F)(F)F)c3)n3ncc(C#N)c32)CC1 [Example 77, 4,5-Dihydro-4-[(4-methyl-1-piperazinyl)acetyl]-7-[3-(trifluoromethyl)phenyl]pyrazolo[1,5-a]-pyrimidine-3-carbonitrile. dihydrochloride] | – | – | – | – | – | – | – | 17.4 shocks per 3 min. |
